Data published in ChEMBL document CHEMBL1201862, “PubChem BioAssay data set” (2004).
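Briefly, cells in 96-well plates were exposed to five compound concentrations for 48 h, and endpoints were estimated by linear interpolation. Abbreviation: GI50, concentration required for 50% inhibition of growth.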 Activity calls are given as the source filed them. Rule as the data show it: active = GI50 up to about 1.1 µM and inactive = higher.

Assays:
Experiment in all cases: NCI anticancer screen, dose series, 48 h
[1] = test system: UACC-62
[2] = test system: DLD-1
[3] = test system: SNB-19
[4] = test system: SK-MEL-2
[5] = test system: NCI-H226
[6] = test system: OVCAR-3
[7] = test system: IGROV-1
[8] = test system: SF-268
[9] = test system: EKVX
[10] = test system: HCT-15
[11] = test system: OVCAR-8
[12] = test system: A498
[13] = test system: LOX IMVI
[14] = test system: KM12
[15] = test system: HOP-92
[16] = test system: CCRF-CEM
[17] = test system: NCI-H23
[18] = test system: TK-10
[19] = test system: MDA-N
[20] = test system: HOP-18

SMILES	GI50 [1]	GI50 [2]	GI50 [3]	GI50 [4]	GI50 [5]	GI50 [6]	GI50 [7]	GI50 [8]	GI50 [9]	GI50 [10]	GI50 [11]	GI50 [12]	GI50 [13]	GI50 [14]	GI50 [15]	GI50 [16]	GI50 [17]	GI50 [18]	GI50 [19]	GI50 [20]
Nc1nc(=O)[nH][nH]1	> 100 µM (inactive)	> 100 µM (inactive)	> 100 µM (inactive)	> 100 µM (inactive)	> 100 µM (inactive)	> 100 µM (inactive)	> 100 µM (inactive)	> 100 µM (inactive)	> 100 µM (inactive)	> 100 µM	> 100 µM (inactive)	> 100 µM (inactive)	> 100 µM (inactive)	> 100 µM (inactive)	> 100 µM (inactive)	> 100 µM (inactive)	> 100 µM (inactive)	–	–	–
CN(C)CCNC(=O)Cn1ccc(=O)c2ccc([N+](=O)[O-])cc21	> 100 µM (inactive)	–	> 100 µM (inactive)	> 100 µM (inactive)	> 100 µM (inactive)	38.2 µM (inactive)	> 100 µM (inactive)	> 100 µM (inactive)	> 100 µM (inactive)	73.8 µM	–	> 100 µM (inactive)	> 100 µM (inactive)	> 100 µM (inactive)	> 100 µM (inactive)	> 100 µM (inactive)	> 100 µM (inactive)	> 100 µM (inactive)	> 100 µM (inactive)	–
CCOC(=O)C(=CNC(Cc1c[nH]c2ccccc12)C(=O)OC)C(=O)OCC (stereo not given)	71.1 µM (inactive)	> 100 µM (inactive)	> 100 µM (inactive)	63.8 µM (inactive)	> 100 µM (inactive)	> 100 µM (inactive)	> 100 µM (inactive)	> 100 µM (inactive)	> 100 µM (inactive)	> 100 µM	> 100 µM (inactive)	> 100 µM (inactive)	> 100 µM (inactive)	–	16.6 µM (inactive)	> 100 µM (inactive)	> 100 µM (inactive)	> 100 µM (inactive)	–	92 µM (inactive)
Cc1n[nH]c(N)c1C(N)=O	> 100 µM (inactive)	> 100 µM (inactive)	> 100 µM (inactive)	> 100 µM (inactive)	–	–	> 100 µM (inactive)	> 100 µM (inactive)	> 100 µM (inactive)	> 100 µM	> 100 µM (inactive)	> 100 µM (inactive)	> 100 µM (inactive)	> 100 µM (inactive)	–	> 100 µM (inactive)	> 100 µM (inactive)	> 100 µM (inactive)	–	< 0.01 µM (active)
C[Si](C)(OCCS(=O)(=O)O)C1(Cc2cccc3ccccc23)S(=O)(=O)OCCOS1(=O)=O	17.9 µM (inactive)	–	19.1 µM (inactive)	18.9 µM (inactive)	19.5 µM (inactive)	12.6 µM (inactive)	16.9 µM (inactive)	23.2 µM (inactive)	17.7 µM (inactive)	19.6 µM	19.5 µM (inactive)	15.9 µM (inactive)	16.2 µM (inactive)	14.4 µM (inactive)	11.2 µM (inactive)	18.3 µM (inactive)	27.8 µM (inactive)	20.9 µM (inactive)	17.8 µM (inactive)	–
C#CCOc1c(C(=O)OCC)c(=O)n(C)c2ccccc12	> 100 µM (inactive)	> 100 µM (inactive)	> 100 µM (inactive)	> 100 µM (inactive)	> 100 µM (inactive)	> 100 µM (inactive)	> 100 µM (inactive)	> 100 µM (inactive)	> 100 µM (inactive)	> 100 µM	> 100 µM (inactive)	> 100 µM (inactive)	> 100 µM (inactive)	–	70 µM (inactive)	> 100 µM (inactive)	> 100 µM (inactive)	> 100 µM (inactive)	–	> 100 µM (inactive)
N=S(=O)(c1ccccc1)c1ccccc1	> 100 µM (inactive)	> 100 µM (inactive)	> 100 µM (inactive)	> 100 µM (inactive)	> 100 µM (inactive)	> 100 µM (inactive)	> 100 µM (inactive)	> 100 µM (inactive)	> 100 µM (inactive)	–	> 100 µM (inactive)	> 100 µM (inactive)	> 100 µM (inactive)	> 100 µM (inactive)	–	24.2 µM (inactive)	> 100 µM (inactive)	–	–	> 100 µM (inactive)
